In patent publication US20030023104A1, “Therapeutic compound - fatty acid conjugates” (COMMONWEALTH SCIENTIFIC AND INDUSTRIAL RESEARCH ORGANISATION, priority 1995, published 2003):
Like-named read-outs stand apart in the source and are kept apart here.

Legend:
[1] = tested on: HIV-I U4550; assay: Anti HIV activity, Ag gp120 production in infected JM cells; type: cell-based
Method: (§1) The anti-HIV activities of AZT-Suc-GTP1 and AZT-Suc-GTP2 were also tested. Infected cells were incubated for 5 days with compound. Compounds were dissolved in DMSO and 5-fold dilutions were used. The following parameters were measured: syncytia formation, virus antigen gp120 production, cell survival. Cytotoxicity is also measured in uninfected cells.
(§2) JM (semi mature human T-cell from lymphoblastoid leukemia) infected with HIV-I U4550
(§3) EC50=concentration which reduces Ag gp120by 50% in infected cell cultures.

[2] = tested on: JURKAT (acute T cell human leukemia); assay: Cytotoxicity of AZT and conjugates, MTS viability assay, JURKAT; type: cell-based
Method: (§4) The cytotoxicity of AZT and AZT-fatty acid conjugates (AZT-Suc-GTP1P2 and P3) was tested in vitro with JURKAT (acute T cell human leukemia) and peripheral blood mononuclear cells (PBMC).
(§5) Each concentration was tested in at least 3 wells.

[3] = tested on: HIV-I MN; assay: Anti HIV activity, Ag gp120 production in infected C8166 cells; type: cell-based
Method: as §1
(§6) C8166 (human T-lymphoblastoid cells) infected with HIV-I MN
as §3

[4] = tested on: JM (semi mature human T-cell from lymphoblastoid leukemia); assay: Cell growth (cytotoxicity) in JM cells; type: cell-based
Method: as §1, §2
(§7) IC50=concentration of drug which reduces cell growth by 50%.

[5] = tested on: C8166 (human T-lymphoblastoid cells); assay: Cell growth (cytotoxicity) in C8166 cells; type: cell-based
Method: as §1, §6, §7

[6] = tested on: peripheral blood mononuclear cells (PBMC); assay: Cytotoxicity of AZT and conjugates, MTS viability assay, PBMC; type: cell-based, human; details: 40 h, drug in ethanol
Method: as §4
Human peripheral blood mononuclear cells (PBMC) were isolated from three healthy donors by centrifugation on Ficoll-Paque (Pharmacia). Cells were seeded into a 96-well plates at a density of 2×10^5 cells/200 ul complete RPMI ± drug and cultured for 40 h.
as §5

[7] = tested on: coordination of mice; assay: Coordination on Rotor-Rod; type: in vivo, Quackenbush Strain mice; details: 1 and 4 hr after ip injection, 1.6 rpm
Method: Coordination of mice after treatment was also assessed by placing treated animals on a Rotor-Rod at 1.6 rpm. The ability of animals to stay on the rod was assessed.

[8] = tested on: pain response on heated plate; details: for Time Response ± SEM: doses 5, 10 & 20 mg Morphine/kg pooled, 12 mice per group; for Behaviour Score ± SEM: pooled doses, panel score 0 (agitated) to 3 (placid)
Method: The biological activities of Morphine (Mo) and fatty acid conjugates were tested in an antinociceptive assay using mice. Various doses and duration of pain-killing effect of the drugs were examined.
Quackenbush Strain mice (male, 5-week-old, approximately 30 g live weight) were used for the experiments. Animals were given free access to food and water prior to and during the experiment. Animals were divided into groups of 12 and individually weighed. The mean weight for each group was calculated. Mice were then placed on a metal block heated to 50° C. and the time taken for the animals to show signs of discomfort was measured (baseline response: control). Mice were then injected intraperitoneally (ip) with various doses of Morphine or Morphine-fatty acid conjugate. Morphine was made up in a H2O solution and Morphine-fatty acids were made up in an emulsion containing 10% glycerylmonooleate, 21% Miglyol, 6% ethanol, 24% Tween 80 (33%) and 39% H2O. 0.2 ml of appropriate solution was injected ip into each mouse. At different times after injection, responses on the heated plate were measured. In each experiment 3 doses of Morphine and Morphine-fatty acid and 2 time points were tested. A single mouse was used for each treatment and the entire experiment repeated at least 3 times. […] Members of the panel were asked to score mice behaviour according to the following key:
0=agitated mouse, distressed
1=showing mild discomfort
2=not agitated or uncomfortable but still alert
3=placid. docile; not at all worried.
Results from the panel were averaged.

[9] = 5 days, read-out: IC50 (concentration of drug which reduces cell growth by 50%)

CCCCCCCCCCCCCCCC(=O)OCC(CO)(CO)NC(=O)CNC(=O)CCC(=O)OC[C@H]1O[C@@H](n2cc(C)c(=O)[nH]c2=O)C[C@@H]1N=[N+]=[N-] [AZT-Suc-GTP1]
Ratio of AZT: Conjugate EC50 ([1]; JM cell line): 12.5 | EC50 ([1]; JM cells infected with HIV-I U4550, 5 days, read-out: EC50 (concentration which reduces Ag gp120 by 50% in infected cell cultures)): 8 µM | times more cytotoxic than the parent drug ([2]; JURKAT cells, versus AZT): 40 | IC50 ([2]; JURKAT, 64 h, drug in ethanol, MTS): 43 µM | Ratio of AZT: Conjugate EC50 ([3]; C8166 cell line): 1.3 | EC50 ([3]; C8166 cells infected with HIV-I MN, 5 days, read-out: EC50 (concentration which reduces Ag gp120 by 50% in infected cell cultures)): 0.012 µM | fold more cytotoxic than AZT [4]: 50 | IC50 [4, 9]: 100 µM | fold more cytotoxic than AZT [5]: 50 | IC50 [5, 9]: 100 µM | IC50 [6]: 26.7 µM

CN1CC[C@]23c4c5ccc(O)c4O[C@H]2[C@@H](O)C=C[C@H]3[C@H]1C5 [Morphine, reference compound]
ability to stay on the Rotor-Rod (coordination) [7]: able to stay on the rotor-rod | mean time response ([8]; 1 mg Mo/kg ip, 4 hr, standard error of each mean ±2.86): 23.2 s | mean time response ([8]; 1 mg Mo/kg ip, 6 hr, standard error of each mean ±2.86): 20.8 s | mean time response ([8]; 5 mg Mo/kg ip, 1 hr): 27.8 (4) sec | mean time response ([8]; 5 mg Mo/kg ip, 4 hr): 23.9 (8) sec | mean time response ([8]; 5 mg Mo/kg ip, 6 hr): 20.0 (4) sec | mean time response ([8]; 10 mg Mo/kg ip, 4 hr, standard error of each mean ±2.86): 23.0 s | mean time response ([8]; 10 mg Mo/kg ip, 6 hr, standard error of each mean ±2.86): 24.2 s | Time Response ± SEM ([8]; 1 hr after ip injection): 32.7 ± 2.74 s | Behaviour Score ± SEM ([8]; 1 hr after ip injection): 2.46 ± 0.166 | Time Response ± SEM ([8]; 4 hr after ip injection): 28.2 ± 2.74 s | Behaviour Score ± SEM ([8]; 4 hr after ip injection): 1.93 ± 0.166

CCCCCCCCCCCCCCCC(=O)OCC(CO)(COC(=O)CCCCCCCCCCCCCCC)NC(=O)CNC(=O)CCC(=O)Oc1ccc2c3c1O[C@H]1[C@@H](O)C=C[C@H]4[C@@H](C2)N(C)CC[C@@]341 [Morphine-Suc-GTP2, Morphine-Suc-Gly-Tris-Dipalmitate]
ability to stay on the Rotor-Rod (coordination) [7]: able to stay on the rotor-rod | mean time response ([8]; 5 mg Mo/kg ip, 1 hr): 24.0 (4) sec | mean time response ([8]; 5 mg Mo/kg ip, 4 hr): 30.5 (8) sec | mean time response ([8]; 5 mg Mo/kg ip, 6 hr): 27.8 (4) sec | Time Response ± SEM ([8]; 1 hr after ip injection): 26.7 ± 2.74 s | Behaviour Score ± SEM ([8]; 1 hr after ip injection): 2.34 ± 0.166 | Time Response ± SEM ([8]; 4 hr after ip injection): 31.2 ± 2.74 s | Behaviour Score ± SEM ([8]; 4 hr after ip injection): 2.35 ± 0.166 | duration of pain-killing effect compared with morphine ([8]; ip injection): longer lasting pain-killing effect than unconjugated morphine
